Assay results published in patent US5432058A, “Method for measuring human cholesterol absorption using metabolically stable isotopes” (priority 1992, dated 1995).
Values joined by “and” are separate entries in the source; they are usually repeats but may differ in a detail not shown here. Equal entries are not always repeated. Where two headings read alike, the source gives them in different places.

Key:
[1] = parameters: species or system rabbits; details: rabbit, in vivo
Description: [26,26,26,27,27,27]-^2 H-cholesterol shown if FIG. 2 was prepared by Dr. Eric Stohler of Biodesign, Inc. The deuterium in the labeled cholesterol is located on stable terminal methyl groups of the side chain. When both: ^13 C-cholesterol and ^2 H-cholesterols were given intravenously or orally to rabbits there was no change in the plasma ratio of the two cholesterols over one week.

[2] = Preparation of Intralipid infusate: filter passage and residual tracer in syringe and lines; assay type: physicochemical
Description: (§1) [23,24,25,26,27]-^13 C-cholesterol suitable for intra venous administration was prepared in a laminar flow hood. The labeled cholesterol was dissolved at 5 mg/ml in USP ethanol in a sterile container, water was added to 10% by volume in order to increase virucidal activity, and the solution was allowed to stand at room temperature for at least 6 hrs. The solvents were then sterilely removed and the cholesterol residue dissolved at 20 mg/ml in ethanol and passed through a 0.22 micron solvent-resistant filter. Aliquots were tested for sterility and dried aliquots for pyrogenicity using the Limulus assay, and the stock was kept frozen at -70° C. On the day of the experiment both the ^13 C-cholesterol and a small amount of 10% Intralipid were warmed to 37° C. and the ethanolic cholesterol was added dropwise to 4 volumes of Intralipid. After 5 minutes at 37° C. and 15 min. at room temperature the mixture was put through a 0.8 micron particulate filter. More than 94% of the labeled cholesterol passed through the filter. An aliquot containing approximately 15 mg. ^13 C-cholesterol was drawn into atared syringe and weighed. The syringe contents were injected over 5 minutes into a running saline infusion and the syringe was washed several times with saline.

[3] = Dual stable isotope cholesterol absorption study in healthy subjects (oral and intravenous tracers, plasma tracer ratio by GC/MS on day 3); assay type: in vivo, human; details: for Fa at 72 h: human, in vivo, po, 30 mg
Description: There is a paucity of information concerning cholesterol absorption in humans, and one prominent reason for this deficiency is the need to administer long-lived radioactive cholesterol tracers. To eliminate this hazard, we have developed a procedure, based on that of Zilversmit (Prof. Soc. Exp. Med. Biol. 140:862-865, 1972), employing stable isotopic tracers of cholesterol. One metabolically stable cholesterol tracer is administered orally and a second metabolically stable cholesterol tracer is administered intravenously on day 0. The ratio of the two tracers is determined after equilibration on about day 3 by gas chromatography-mass spectrometry (GC/MS) with selected ion monitoring. Ion current peaks corresponding to the first and second tracers are corrected for spillover From each other and from endogenous cholesterol. Percent cholesterol absorption is calculated as the ratio of the cholesterol tracers. The use of stable cholesterol isotopes for the study of cholesterol absorption is feasible, precise, safe and allows broad application of cholesterol absorption measurements in humans including women and children, thereby Facilitating clinical genetic studies in groups about which little current data is available.
There is a waiting period after the cholesterol tracers of this invention have been administered to a human subject. The waiting period allows the ingested cholesterol tracer to reach equilibrium in the subject's blood. The waiting period can range from 12 hours to about 5 days or more. However, it is preferred that the waiting period is from about 24 hours to about 96 hours. Following the waiting period, a blood sample is withdrawn from the subject and analyzed by GC/MS techniques to determine the relative amount of the two cholesterol tracers and the natural cholesterols in the sample. The GC/MS data is corrected to provide the actual relative amounts of the cholesterol tracers in the blood sample and a cholesterol absorption percentage is calculated based upon the amount of cholesterol tracers introduced into the body in relation to the amount in the blood samples.
Five healthy subjects (three men and two women, age 22-34) underwent two cholesterol absorption studies separated by 4-6 weeks. Out patient subjects received a National Cholesterol Education Program step I diet prepared in the metabolic kitchen of the Washington University Clinical Research Center for five days. Starting two days before testing and ending three days after testing. The metabolically stable cholesterols were given on day 0 with a meal containing 240 ml of whole milk as a source of fat to assure contraction of the gallbladder.
as §1, with “saline. […]” for “saline.”

[4] = humans, background; cited from earlier work

| change in the plasma ratio of the two cholesterols [1] | labeled cholesterol passed through the filter ([2]; ethanolic cholesterol in 4 volumes of 10% Intralipid, 0.8 micron particulate filter) | solubilization of cholesterol ([2]; with use of Intralipid) | tracer cholesterol found in the syringe and intravenous lines ([2]; with use of Intralipid) | Structure (SMILES) | Fa at 72 h ([3]; mean of five healthy subjects, test 1, read-out: mean cholesterol absorption, Test 1) | Fa at 72 h ([3]; mean of five healthy subjects, test 2, 4-6 weeks later, read-out: mean cholesterol absorption, Test 2) | Fa at 72 h ([3]; test 1, five healthy subjects, read-out: cholesterol absorption, range between subjects) | cholesterol absorption, Test 1 ([3]; individual subjects 1-5, oral ^2 H-cholesterol about 30 mg, i.v. ^13 C-cholesterol about 15 mg, plasma at three days, 4320 min) | cholesterol absorption, Test 2 ([3]; individual subjects 1-5, second study 4-6 weeks after Test 1, plasma at three days, 4320 min) | mean cholesterol absorption, Test 1 ([3]; mean of five healthy subjects, test 1, 4320 min) | percent of cholesterol absorbed [4] |
| --- | --- | --- | --- | --- | --- | --- | --- | --- | --- | --- | --- |
| no change | – | – | – | [2H]C([2H])([2H])C(CCC[C@@H](C)[C@H]1CC[C@H]2[C@@H]3CC=C4C[C@@H](O)CC[C@]4(C)[C@H]3CC[C@]12C)C([2H])([2H])[2H] [^2 H-cholesterol, [26,26,26,27,27,27]-^2 H-cholesterol] | – | – | – | – | – | – | – |
| no change | More than 94% | quantitatively solubilized | less than 0.4% | C[C@H](C[13CH2][13CH2][13CH]([13CH3])[13CH3])[C@H]1CC[C@H]2[C@@H]3CC=C4C[C@@H](O)CC[C@]4(C)[C@H]3CC[C@]12C [^13 C-cholesterol, [23,24,25,26,27]-^13 C-cholesterol] | – | – | – | – | – | – | – |
| – | – | – | – | CC(C)CCC[C@@H](C)[C@H]1CC[C@H]2[C@@H]3CC=C4C[C@@H](O)CC[C@]4(C)[C@H]3CC[C@]12C [cholesterol] | 59.3 ± 8.4% | 57.6 ± 8.2% | 47 to 71% | 59.4% and 62.2% and 70.5% and 47.4% and 57.1% | 62.4% and 58.0% and 67.2% and 45.4% and 55.0% | 59% | 15% to 75 |
